Columns and labels:
[1] = Acute toxicity in mice, DL50 dose; settings: mouse, in vivo, ip, intraperitoneal, suspension in aqueous carboxymethylcellulose, observed one week
Procedure: The acute toxicity was determined on groups of 5 mice weighing about 18 to 22 g and the test products were intraperitoneally administered in suspension in an aqueous carboxymethylcellulose.

[2] = tested on: male rats of the Sprague Dawley S.P.F. strain; assay: Hypolipemiant activity in rats on sucrose- and cholesterol-rich regime, % variation of levels versus untreated controls; assay type: in vivo, rat (Sprague Dawley S.P.F.); settings: 10 days, esophagus tube, vs untreated controls
Procedure: This test was effected on groups of 8 male rats of the Sprague Dawley S.P.F. strain weighing about 200 g and the animals received a regime containing 50% of saccharose and which was rich in cholesterol (1%). The rats were treated over 10 days with the test products which were administered through an esophagus tube as a suspension in water containing carboxymethylcellulose. The animals were left without food 16 hours after the last administration of the test product and then killed by an abdominal puncture and from the blood sample with sodium heparinate, the levels of triglycerides, cholesterol and total lipids were determined by the following methods.
The triglyceride level was determined by the semiautomatic technique of Kessler et al [Automation in Analytical Chemistry, 1965, p. 341] modified by Claude et al [Ann. Biol. Clin., Vol. 26 3-4 (1968), p. 451]. The cholesterol levels were determined by the technique of Levine [Symposium Technicon, Vol. I, (1967), p. 25] adapted to auto-analyzer system I. The nephelometric level of total lipids was determined semi-automatically by the method of Girard et al. [Symposium Technicon, 1970]. The variations expressed in percentages of the level of triglycerides, cholesterol and total lipids after administration of the various dosage of the test products in the treated animals as compared to the untreated controls and the results are reported in Table I.

SMILES	LD50 at 168 h [1] [mg/kg]	% Variation of levels, Cholesterol ([2]; 5 mg/kg day) [%]	% Variation of levels, Total Lipids ([2]; 5 mg/kg day) [%]	% Variation of levels, Triglycerides ([2]; 5 mg/kg day) [%]	% Variation of levels, Cholesterol ([2]; 2 mg/kg day) [%]	% Variation of levels, Total Lipids ([2]; 2 mg/kg day) [%]	% Variation of levels, Triglycerides ([2]; 2 mg/kg day) [%]	% Variation of levels, Cholesterol ([2]; 50 mg/kg day) [%]	% Variation of levels, Total Lipids ([2]; 50 mg/kg day) [%]	% Variation of levels, Triglycerides ([2]; 50 mg/kg day) [%]
C=CC1(c2ccccc2)OC(C(=O)OC)Oc2ccc(Cl)cc21 (single isomer, unassigned) [Example 22, methyl 6-chloro-4-phenyl-4-ethenyl-[4H]-1,3-benzodioxin-2-carboxylate]	~700	-35	-34	-79						
COC(=O)C1Oc2ccc(Cl)cc2C(C)(c2cccc(C(F)(F)F)c2)O1 (stereo not drawn) [Example 18]	> 1000	-41	-51	-47	-30	-29	-15			
CCC1(CC)OC(C(=O)O)Oc2ccc(Cl)cc21 (stereo not drawn) [Example 1, 6-chloro-4,4-diethyl-[4H]-1,3-benzodioxin-2-carboxylic acid]	200							-37	-39	-11
COC(=O)C1Oc2ccc(OC)cc2C(C)(c2ccccc2)O1 (single isomer, unassigned) [Example 30, methyl 6-methoxy-4-methyl-4-phenyl-[4H]-1,3-benzodioxin-2-carboxylate]	> 1000	-43	-41	-33						
COC(=O)C1Oc2ccc(Cl)cc2C(Cc2ccccc2)(c2ccccc2)O1 (single isomer, unassigned) [Example 32, methyl 6-chloro-4-phenyl-4-benzyl-[4H]-1,3-benzodioxin-2-carboxylate]	> 1000	-45	-41	-11						
CC1(C)OC(C(=O)O)Oc2ccc(Cl)cc21 (stereo not drawn) [Example 2, 6-chloro-4,4-dimethyl-[4H]-1,3-benzodioxin-2-carboxylic acid]	450							-23	-28	-11

From US4281012A, “[4H]-1,3-Benzodioxin-2-carboxylic acids” (Roussel Uclaf, priority 1978, dated 1981)
